Assay results reported in patent US20250154494A1, “Microfluidic Co-Encapsulation Device and System and Methods for Identifying T-Cell Receptor Ligands” (JANSSEN BIOTECH, INC., priority 2021, published 2025).

Key:
[1] = tested on: T-cells expressing cognate TCR; assay type: cell-based
[2] = tested on: TCR signaling; assay: Co-culture of Jurkat reporter cells carrying synthetic promoters with peptide-loaded B cells (GFP / HA reporter); assay type: cell-based
Description: Sleeping beauty transposon reporter constructs were transfected together with transposases into T cells, 5 to 1 ratio, using the Neon transfection system following the manufacturer's protocol. The voltages used for Jurkat cells were 1350V/[…]/3 pulse, and for SKW-3 cells 1500V, […] and 1 pulse were used as settings. 48-72 hours after transfection, the cells were selected using […] Blasticidin for Jurkat and […] Blasticidin for SKW-3 cells.
Co-culture experiments were performed using round-bottom 96-well plates. P10-NBV Jurkat and SKW-3 reporter cells and B cells were seeded at a 1:1 ratio into each well. For peptide co-culture experiments, either cognate peptide or mismatched peptide is added to each well and incubated for 16 hours. For minigene-based co-culture experiments, minigene-transduced B cells harboring either the cognate of mismatch minigenes were used. Next day the cells are spun down and stained for Flow cytometry.

## BT1 construct: minigene expression construct with first transmembrane domain of Bcap31 fused to the minigene N-terminus; SEQ ID NO:116 (DNA AVATFLYAEVFVVLLLCIPFI)
[1]
  T-cell activation with 400 AA minigene: strong T-cell activation even with a 400 AA minigene
  stability of T-cell activation over time: stable T-cell activation over time
  strength of minigene-induced T-cell activation: strong T-cell activation, similar to the positive control
[1]; TT2 TCR
  presentation of the TetX_400_1 minigene relative to 2B construct: did not improve the presentation

B1: P10 promoter: synthetic TCR responsive promoter, SEQ ID NO:60 (nucleic acid)
DNA: AGAGATGGGCTAACAGGTATGAGCATGGGAAAAGCATGTTTCAAGAATTTGAGATGTATTTCCCAGAAAAGGAACATGATGAAAATGGTCAGAAAAGGCATTCTTAGGGTCCCCAGATGTCTGCCTTTTCCATTGATTTTCTTTCCTGGTTAATTGCGAGGCTTGCCTCAAGGTGGAAAACAGTATCGGTTTCCACTGGATCACTAGGTCACAGGGTTTGCCTTTTTCCAAACCTGCATCTCAATTTTACCTATGATTTGCATTAAATAACTTTGGAAAAATTGAAGTTCTTGAGAAGCCACCGCGCCCGGCCTCCTCTCCTTTTCCAAATTTATACATTTTGATTGGTGGGGAGATTCCATTATAGGGGCTGGAAAACCCCTTTACCATACCATGAATGTAACTGTACTGTTACAAAGTGGAAAATAACAGTTTCCACTTTTCGCAGCTCTTTGAGAGCAGGACTCTATTTTCCAGTCTCTTTATAAGCTTCATTCATAGTGAAGCTAACAGAAGTTTTTCCATGGTTAGATTGTGCACCGGGCTGTTTTTAAATGTAATATGATTTTCCATTTACTTATTTATCTTTGTAGTTTTATGACAAAGAAAATTTTCTGAGTTACTTTTGTATCCCCACCCCCTTAAAGAAAGGAGGAAAAACTGTTTCATACAGAAGGCGTTAATTGCA
[2]; sleeping beauty constructs
  GFP and HA reporter gene expression in sleeping beauty constructs: high GFP and HA reporter gene expression

B2: NBVtf: synthetic transcription factor, fusion of NFAT N-terminus, Bob1 octamer-binding domain and VP16 transactivation domain; SEQ ID NO:76 (protein)
chain: MPSTSFPVPSKFPLGPAAAVFGRGETLGPAPRAGGTMKSAEEEHYGYASSNVSPALPLPTAHSTLPAPCHNLQTSTPGIIPPADHPSGYGAALDGGPAGYFLSSGHTRPDGAPALESPRIEITSCLGLYHNNNQFFHDVEVEDVLPSSKRSPSTATLSLPSLEAYRDPSCLSPASSLSSRSCNSEASSYESNYSYPYASPQTSPWQSPCVSPKTTDPEEGFPRGLGACTLLGSPRHSPSTSPRASVTEESWLGARSSRPASPCNKRKYSLNGRQPPYSPHHSPTPSPHGSPRVSVTDDSWLGNTTQYTSSAIVAAINALTTDSSLDLGDGVPVKSRKTTLEQPPSVALKVEPVGEDLGSPPPPADFAPEDYSSFQHIRKGGFCDQYLAVPQHPYQWAKPKPLSPTSYMSPTLPALDWQLPGSTSGSGKPGSGEGSTKGMLWQKPTAPEQAPAPARPYQGVRVKEPVKELLRRKRGHASSGAAPAPTAVVLPHQPLATYTTVGPSCLDMEGSVSAVTEEAALCAGWLSQPGGGGSGGGGSGGGGSTAPPTDVSLGDELHLDGEDVAMAHADALDDFDLDMLGDGDSPGPGFTPHDSAPYGALDMADFEFEQMFTDALGIDEYGG
[2]; Jurkat-P10NBV-TT2 cells, BOLETH cells loaded with 0.01 μM cognate peptide
  reporter gene expression: further improves reporter gene expression
[2]; Jurkat-P10NBV-TT11 cells, BOLETH cells loaded with 0.1 μM cognate peptide
  reporter gene expression: further improves reporter gene expression
